This is an account of results in patent publication US20260265265A1, “NOVEL BENZIMIDAZOLONE DERIVATIVE COMPOUND AS AUTOTAXIN INHIBITOR” (LG CHEM, LTD., priority 2023, published 2026).

Molecules are shown by their SMILES.

The experiment addresses T1, Recombinant Human ENPP-2/Autotaxin (Homo sapiens, UniProt Q13822).
T1 construct: purchased R&D systems 5255-EN
The experiment in a line: LysoPLD activity measurement (autotaxin enzyme inhibition, choline release, TOOS reagent). In kind it is biochemical. The settings on record: LysoPLD inhibitory activity; substrate 14:0 LysoPC; absorbance at 555 nm. In short, it runs like this:
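Autotaxin lysoPLD activity was read as choline released from 14:0 LysoPC, detected by TOOS reagent absorbance. Compound was preincubated 30 min, then substrate diluted to 300 μM was added and the reaction ran 90 minutes at 37° C. Controls contained 1% DMSO.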
In the case of `CN(C)c1ccc(-n2c(=O)n(C3(c4cc(F)cc(C(=O)O)c4)CC3)c3ccc(Cl)cc32)cc1` [Example 188, 3-(1-(5-chloro-3-(4-(dimethylamino)phenyl)-2-oxo-2,3-dihydro-1H-benzo[d]imidazol-1-yl)cyclopropyl)-5-fluorobenzoic acid], the IC50 was less than 10 nM.

In the case of `CN(C)C(=O)Cc1ccc(-n2c(=O)n(C3(c4cc(F)cc(C(=O)O)c4)CC3)c3ccc(Cl)cc32)cc1` [Example 189, 3-(1-(5-chloro-3-(4-(2-(dimethylamino)-2-oxoethyl)phenyl)-2-oxo-2,3-dihydro-1H-benzo[d]imidazol-1-yl)cyclopropyl)-5-fluorobenzoic acid], the IC50 was less than 10 nM. The result for `O=C(O)c1cc(F)cc(C2(n3c(=O)n(-c4ccc(C5CCOCC5)cc4)c4cc(Cl)ccc43)CC2)c1` [Example 190, 3-(1-(5-chloro-2-oxo-3-(4-(tetrahydro-2H-pyran-4-yl)phenyl)-2,3-dihydro-1H-benzo[d]imidazol-1-yl)cyclopropyl)-5-fluorobenzoic] reads 10 to 100 nM; that for `O=C(O)c1cc(F)cc(C2(n3c(=O)n(-c4ccc(N5CC6(COC6)C5)cc4)c4cc(Cl)ccc43)CC2)c1` [Example 191, 3-(1-(3-(4-(2-oxa-6-azaspiro[3.3]heptan-6-yl)phenyl)-5-chloro-2-oxo-2,3-dihydro-1H-benzo[d]imidazol-1-yl)cyclopropyl)-5-fluorobenzoic acid], less than 10 nM; that for `O=C(O)c1cc(F)cc(C2(n3c(=O)n(-c4ccc(N5CC6CCC(C5)O6)cc4)c4cc(Cl)ccc43)CC2)c1` [Example 192, 3-(1-(3-(4-(8-oxa-3-azabicyclo[3.2.1]octan-3-yl)phenyl)-5-chloro-2-oxo-2,3-dihydro-1H-benzo[d]imidazol-1-yl)cyclopropyl)-5-fluorobenzoic acid], less than 10 nM.

For the compound `O=C(O)c1cc(F)cc(C2(n3c(=O)n(-c4ccc(N5CC6(CCOCC6)C5)cc4)c4cc(Cl)ccc43)CC2)c1` [Example 193, 3-(1-(3-(4-(7-oxa-2-azaspiro[3.5]nonan-2-yl)phenyl)-5-chloro-2-oxo-2,3-dihydro-1H-benzo[d]imidazol-1-yl)cyclopropyl)-5-fluorobenzoic acid], the IC50 was less than 10 nM. To `O=C(O)c1cc(F)cc(C2(n3c(=O)n(-c4ccc(N5CC(F)(F)C5)cc4)c4cc(Cl)ccc43)CC2)c1` [Example 194, 3-(1-(5-chloro-3-(4-(3,3-difluoroazetidin-1-yl)phenyl)-2-oxo-2,3-dihydro-1H-benzo[d]imidazol-1-yl)cyclopropyl)-5-fluorobenzoic acid] belongs less than 10 nM; to `CC(C)(C)OC(=O)N1CCC2(CC1)CN(c1ccc(-n3c(=O)n(C4(c5cc(F)cc(C(=O)O)c5)CC4)c4ccc(Cl)cc43)cc1)C2` [Example 195, 3-(1-(3-(4-(7-(tert-butoxycarbonyl)-2,7-diazaspiro[3.5]nonan-2-yl)phenyl)-5-chloro-2-oxo-2,3-dihydro-1H-benzo[d]imidazol-1-yl)cyclopropyl)-5-fluorobenzoic acid], 10 to 100 nM; to `O=C(O)c1cc(F)cc(C2(n3c(=O)n(-c4ccc(N5CC6(CCC6)C5)cc4)c4cc(Cl)ccc43)CC2)c1` [Example 196, 3-(1-(3-(4-(2-azaspiro[3.3]heptan-2-yl)phenyl)-5-chloro-2-oxo-2,3-dihydro-1H-benzo[d]imidazol-1-yl)cyclopropyl)-5-fluorobenzoic acid], 10 to 100 nM. The result for `O=C(O)c1cc(F)cc(C2(n3c(=O)n(-c4ccc(N5CCC(F)(F)CC5)cc4)c4cc(Cl)ccc43)CC2)c1` [Example 197, 3-(1-(5-chloro-3-(4-(4,4-difluoropiperidin-1-yl)phenyl)-2-oxo-2,3-dihydro-1H-benzo[d]imidazol-1-yl)cyclopropyl)-5-fluorobenzoic acid] reads less than 10 nM. Consider `O=C(O)c1cc(Cn2c(=O)n(-c3ccc(N4CCOCC4)cc3)c3c(F)c(Cl)ccc32)on1` [Example 198, 5-((5-chloro-4-fluoro-3-(4-morpholinophenyl)-2-oxo-2,3-dihydro-1H-benzo[d]imidazol-1-yl)methyl)isoxazole-3-carboxylic acid], for which the IC50 lay within 100 to 1000 nM. Turning to `O=C(O)c1coc(Cn2c(=O)n(-c3ccc(N4CCOCC4)cc3)c3c(F)c(Cl)ccc32)n1` [Example 199, 2-((5-chloro-4-fluoro-3-(4-morpholinophenyl)-2-oxo-2,3-dihydro-1H-benzo[d]imidazol-1-yl)methyl)oxazole-4-carboxylic acid], the IC50 was 100 to 1000 nM. To `O=C(O)c1cc(Cn2c(=O)n(-c3ccc(N4CCOCC4)cc3)c3c(F)c(Cl)ccc32)cc(F)c1F` [Example 202, 5-((5-chloro-4-fluoro-3-(4-morpholinophenyl)-2-oxo-2,3-dihydro-1H-benzo[d]imidazol-1-yl)methyl)-2,3-difluorobenzoic acid] belongs 10 to 100 nM; to `O=C(O)c1cc(Cn2c(=O)n(-c3ccc(N4CCOCC4)cc3)c3cc(Cl)ccc32)cc(F)c1F` [Example 203, 5-((5-chloro-3-(4-morpholinophenyl)-2-oxo-2,3-dihydro-1H-benzo[d]imidazol-1-yl)methyl)-2,3-difluorobenzoic acid], 10 to 100 nM; to `O=C(O)c1c(F)ccc(Cn2c(=O)n(-c3ccc(N4CCOCC4)cc3)c3c(F)c(Cl)ccc32)c1F` [Example 204, 3-((5-chloro-4-fluoro-3-(4-morpholinophenyl)-2-oxo-2,3-dihydro-1H-benzo[d]imidazol-1-yl)methyl)-2,6-difluorobenzoic acid], 10 to 100 nM. The result for `O=C(O)c1c(F)ccc(Cn2c(=O)n(-c3ccc(N4CCOCC4)cc3)c3cc(Cl)ccc32)c1F` [Example 205, 3-((5-chloro-3-(4-morpholinophenyl)-2-oxo-2,3-dihydro-1H-benzo[d]imidazol-1-yl)methyl)-2,6-difluorobenzoic acid] reads 10 to 100 nM. To `CN(C)c1ccc(-n2c(=O)n(C3(c4cccc(C(=O)O)c4)CC3)c3ccc(C(F)(F)F)cc32)cc1` [Example 206, 3-(1-(3-(4-(dimethylamino)phenyl)-2-oxo-5-(trifluoromethyl)-2,3-dihydro-1H-benzo[d]imidazol-1-yl)cyclopropyl)benzoic acid] belongs 10 to 100 nM; to `O=C(O)c1cccc(C2(n3c(=O)n(-c4ccc(N5CCOCC5)cc4)c4cc(C(F)(F)F)ccc43)CC2)c1` [Example 207, 3-(1-(3-(4-morpholinophenyl)-2-oxo-5-(trifluoromethyl)-2,3-dihydro-1H-benzo[d]imidazol-1-yl)cyclopropyl)benzoic acid], less than 10 nM; to `CN(C)c1ccc(-n2c(=O)n(C3(c4cccc(C(=O)O)c4)CC3)c3ccc(OC(F)(F)F)cc32)cc1` [Example 208, 3-(1-(3-(4-(dimethylamino)phenyl)-2-oxo-5-(trifluoromethoxy)-2,3-dihydro-1H-benzo[d]imidazol-1-yl)cyclopropyl)benzoic acid], 10 to 100 nM.

As for `O=C(O)c1cccc(C2(n3c(=O)n(-c4ccc(N5CCOCC5)cc4)c4cc(OC(F)(F)F)ccc43)CC2)c1` [Example 209, 3-(1-(3-(4-morpholinophenyl)-2-oxo-5-(trifluoromethoxy)-2,3-dihydro-1H-benzo[d]imidazol-1-yl)cyclopropyl)benzoic acid], the IC50 was in the range of 10 to 100 nM. To `CN(C)S(=O)(=O)c1ccc(-n2c(=O)n(C3(c4cccc(C(=O)O)c4)CC3)c3ccc(Cl)cc32)cc1` [Example 210, 3-(1-(5-chloro-3-(4-(N,N-dimethylsulfamoyl)phenyl)-2-oxo-2,3-dihydro-1H-benzo[d]imidazol-1-yl)cyclopropyl)benzoic acid] belongs less than 10 nM; to `O=C(O)c1cccc(C2(n3c(=O)n(-c4ccc(S(=O)(=O)NC5CC5)cc4)c4cc(Cl)ccc43)CC2)c1` [Example 211, 3-(1-(5-chloro-3-(4-(N-cyclopropylsulfamoyl)phenyl)-2-oxo-2,3-dihydro-1H-benzo[d]imidazol-1-yl)cyclopropyl)benzoic acid], less than 10 nM.

`O=C(O)c1cccc(C2(n3c(=O)n(-c4ccc(S(=O)(=O)N5CCOCC5)cc4)c4cc(Cl)ccc43)CC2)c1` [Example 212, 3-(1-(5-chloro-3-(4-(morpholinosulfonyl)phenyl)-2-oxo-2,3-dihydro-1H-benzo[d]imidazol-1-yl)cyclopropyl)benzoic acid]: the IC50 is less than 10 nM. The result for `O=C(O)c1cccc(C2(n3c(=O)n(-c4ccc(S(=O)(=O)NCC5CCC5)cc4)c4cc(Cl)ccc43)CC2)c1` [Example 213, 3-(1-(5-chloro-3-(4-(N-(cyclobutylmethyl)sulfamoyl)phenyl)-2-oxo-2,3-dihydro-1H-benzo[d]imidazol-1-yl)cyclopropyl)benzoic acid] reads 10 to 100 nM; that for `O=C(O)c1cccc(C2(n3c(=O)n(-c4ccc(S(=O)(=O)N5CCCCC5)cc4)c4cc(Cl)ccc43)CC2)c1` [Example 214], less than 10 nM. To `O=C(O)c1cccc(C2(n3c(=O)n(-c4ccc(S(=O)(=O)N5CCCC5)cc4)c4cc(Cl)ccc43)CC2)c1` [Example 215, 3-(1-(5-chloro-2-oxo-3-(4-(pyrrolidin-1-ylsulfonyl)phenyl)-2,3-dihydro-1H-benzo[d]imidazol-1-yl)cyclopropyl)benzoic acid] belongs less than 10 nM. For the compound `CC(C)(O)Cc1ccc(-n2c(=O)n(C3(c4cccc(C(=O)O)c4)CC3)c3ccc(Cl)cc32)cc1` [Example 216, 3-(1-(5-chloro-3-(4-(2-hydroxy-2-methylpropyl)phenyl)-2-oxo-2,3-dihydro-1H-benzo[d]imidazol-1-yl)cyclopropyl)benzoic acid], the IC50 is less than 10 nM. The result for `CC(C)(F)Cc1ccc(-n2c(=O)n(C3(c4cccc(C(=O)O)c4)CC3)c3ccc(Cl)cc32)cc1` [Example 217, 3-(1-(5-chloro-3-(4-(2-fluoro-2-methylpropyl)phenyl)-2-oxo-2,3-dihydro-1H-benzo[d]imidazol-1-yl)cyclopropyl)benzoic acid] reads 10 to 100 nM.
